What was measured:
[1] = system: Mr = 72,000 brush border membrane protein; experiment: Phosphorylation of 72,000 Mr renal brush border membrane protein from treated rats (SDS-PAGE, autoradiography, densitometry); format: in vivo, rat; details: for relative area units under the peak in the densitometry tracings of autoradiogram of the Mr = 72,000 brush border membrane protein: mean ± SEM
Experimental: Male Sprague-Dawley rats, weighing 125-150 g (Charles River, Wilmington, Mass.), were randomly divided into three groups: (1) DOCA-salt group-rats underwent unilateral nephrectomy and were given an initial injection of 12.5 mg of deoxycorticosterone acetate (DOCA) followed by 6.5 mg weekly which was coupled with 1 percent saline as drinking water ([…] et al. Altered Activity of the Sodium-Potassium Pump in Arteries of Rats with Steroid Hypertension, Clin. Sci. Mol. Med., 55:pp. 41s-43s (1978); (2) Uninephrectomized control group (UNE)-rats underwent unilateral nephrectomy and were given tap water ad libitum; (3) Normal group-normal rats drank tap water ad libitum and were not subjected to surgery. All three groups were maintained on normal rat chow. Systolic blood pressure was measured weekly by the tail-cuff method. […] J. Biol. Chem. 257:pp 992-99 (1982). […] Anal Biochem, 72:pp. 248-54 (1976). Autoradiography and densitometry were performed in accordance with […], et al., Phosphorylation of Endogenous Protein in Primate Kidney. […] Biochem. Physiol. 103B:pp 267-73 (1992). […] Data is expressed as mean±SEM, with statistical significance being calculated by Student's t test and the ANOVA test.

[2] = Systolic blood pressure by tail-cuff method in DOCA-salt hypertensive rats; format: in vivo, rat; details: mean±SEM
Experimental: Male Sprague-Dawley rats, weighing 125-150 g (Charles River, Wilmington, Mass.), were randomly divided into three groups: (1) DOCA-salt group-rats underwent unilateral nephrectomy and were given an initial injection of 12.5 mg of deoxycorticosterone acetate (DOCA) followed by 6.5 mg weekly which was coupled with 1 percent saline as drinking water (Pamani et al. Altered Activity of the Sodium-Potassium Pump in Arteries of Rats with Steroid Hypertension, Clin. Sci. Mol. Med., 55:pp. 41s-43s (1978); (2) Uninephrectomized control group (UNE)-rats underwent unilateral nephrectomy and were given tap water ad libitum; (3) Normal group-normal rats drank tap water ad libitum and were not subjected to surgery. All three groups were maintained on normal rat chow. Systolic blood pressure was measured weekly by the tail-cuff method.
Referring to FIG. 1, there is shown a plot of systolic blood pressure in mm Hg versus time in days. The study involved ten rats in each of the three DOCA categories: (a) DOCA-salt; (b) UNE-uninephrectomized; and (c) NOR, normal group. The 2K1C study involved eight rats in each of the three groups: (a) 2K1C; (b) SHAM, sham-operated group; and (c) NOR, normal group.
The systolic blood pressure in the 2K1C rats increased from 121.4±1.7 mm Hg to 137.6±3.0 mm Hg by the first week after surgery and to 173.5±4.4 mm Hg by the 21st day (p<0.001). […]

[3] = system: Mr = 72,000 brush border membrane protein; details: 10 μM cyclic AMP
Excerpt: The preparation of the rat renal proximal brush border membrane vesicles was accomplished in the following manner: When the systolic blood pressure in the DOCA and the 2K1C rat groups became elevated compared with each of the control groups (usually in 3-4 weeks), the kidney cortex was removed to prepare the proximal brush border membrane vesicles by a calcium precipitation method as described in Kempson et al., Inhibition of Renal Brush Border Phosphate Transport and Stimulation of Renal Gluconeogenesis by Cyclic AMP and Parathyroid Hormone, Biochem., Pharmacol., 32:pp. 1533-37 (1983). Vesicles were utilized only if there was at least an 8-fold enrichment in gamma-glutamyl transpeptidase activity in the proximal brush border membrane fraction compared to the original cortical homogenate. […]
The test results reported herein were determined by SDS polyacrylamide gel electrophoresis, autoradiography and densitometry. […] Protein concentration was determined by the method of Bradford using bovine serum albumin as a standard.
Autoradiography and densitometry were performed in accordance with Laminski, et al., Phosphorylation of Endogenous Protein in Primate Kidney. […] Scan traces were recorded with an Ultroscan XL laser densitometer (Pharmacia, LKB) and analyzed by using the computer GelScan XL Software (Version 2.1, Pharmacia).

Row | SMILES | relative area units under the peak in the densitometry tracings of autoradiogram of the Mr = 72,000 brush border membrane protein ([1]; +cAMP (10 μM cyclic AMP in incubation mixture)) | phosphorylation of the Mr=72,000 protein compared with UNE and normal rats ([1]; DOCA group rats, p<0.01) | relative area units under the peak in the densitometry tracings of autoradiogram of the Mr = 72,000 brush border membrane protein ([1]; −cAMP (no cyclic AMP in incubation mixture)) | systolic blood pressure ([2]; 7th day of treatment) | systolic blood pressure ([2]; 21st day, p<0.001) | influence of cAMP on phosphorylation of the Mr=72,000 protein ([3]; membranes from 2K1C, Sham and Normal rats) | effect of addition of cyclic AMP on phosphorylation of the Mr=72,000 protein ([3]; membranes from DOCA, UNE and Normal rats)
1 | CC(=O)OCC(=O)[C@H]1CC[C@H]2[C@@H]3CCC4=CC(=O)CC[C@]4(C)[C@H]3CC[C@]12C [DOCA, deoxycorticosterone acetate] | 1.218 ± 0.33 relative area units | significant attenuation | 1.389 ± 0.37 relative area units | 128.9±2.1 mm Hg | 188.2±5.3 mm Hg | – | –
2 | Nc1ncnc2c1ncn2[C@@H]1O[C@@H]2COP(=O)(O)O[C@H]2[C@H]1O [cyclic AMP] | – | – | – | – | – | not influenced | did not affect

Source: patent publication US20030044856A1, “Method of determining volume dependent hypertension through protein reduction in phosphorylation or concentration and related apparatus” (priority 1997, published 2003)
